Assays:
anti-8EPGF2 IgG [1] = experiment: specificity / cross-reactivity of anti-8EPGF2 IgG (competitive ELISA); format: binding, goat; details: for cross-reaction with anti-8EPGF2 IgG / cross-reaction with anti-8EPGF2 IgG (in words): 8EPGF2 ELISA
Method: The IgG bound to the protein G column was eluted with 50 mM glycine-HCl buffer, pH 2.5, and immediately neutralized with 0.5M Tris-HCl, pH 7.6.
High-binding strip well microplates (Labsystems, Inc., Marlboro, Ma.) were coated with protein G-purified IgG suspended in 1M carbonate, pH 9.0, (1 μg/well; 200 μL/well final volume) and then covered with parafilm. After overnight incubation at room temperature, the wells were gently washed five times with tris buffered saline (TBS), pH 7.5, containing 0.1% tween. Non-specific sites were blocked by the addition of 0.2 mL of 5% (w/v) nonfat dry milk in TBS. After 2 hours of incubation at room temperature, the plates were washed three times with TBS-tween. […] Following incubation for 1 hour to permit competitive binding to bound antibody, unbound material was removed by thoroughly washing the wells with TBS-tween and 150 μL of a calorimetric substrate for HRP [3,3',5,5'tetramethylbenzidine (TMB) with hydrogen peroxide] (ELISA Technologies) was added. After incubation of the plate for 20 minutes, the reaction is stopped by addition of 75 μL of 1N H2 SO4, and the absorbance at 450 nm determined using a microtiter plate reader. Under these assay conditions, the amount of color in a well is inversely proportional to the initial concentration of the sample or standard ligand.

anti-8EPGF2 IgG [2] = experiment: immunoaffinity column retention of 8EPGF2 on anti-8EPGF2 IgG resin; format: binding, goat; details: up to 10 ng 8EPGF2 applied
Method: Reacti-gel was obtained from Pierce Co. and anti-8EPGF2 immunoaffinity column was prepared according to the manufacturer's instruction. […] In each experiment samples were diluted to concentrations lower than the capacity of the column (~0.5 ng/100 μL) prior to application to the column.
Urine samples were applied to immunoaffinity columns, which were then eluted with acetonitrile:water (1:3), followed by acetone:water (90:10). The eluates were then processed and analyzed using the standard GC/MS protocol as described herein above. […] PGF2α has a slightly longer retention time than the [^2 H4 ]-PGF2α (the internal control) shown in the bottom chromatograms of FIG. 4A and 4B, because protium runs faster than deuterium on GC [Wendelborn et al, 1990]. The six peaks with m/z=569 are numbered by the order of elution and the elution time of each peak was divided by the elution time of internal standard, [^2 H4 ]-PGF2α, obtained at m/z=573 to calculate relative elution time of each peak. […] The identity of Peak I, II, III, and VI is not known.

vasoconstriction = details: cited from earlier work
[3] = aqueous solution, non-enzymatic rearrangement to PGD2 and PGE2; cited from earlier work

Compound | cross-reaction with anti-8EPGF2 IgG (in words) (anti-8EPGF2 IgG [1]) | further results
CCCCC[C@H](O)/C=C/[C@@H]1[C@@H](C/C=C\CCCC(=O)O)[C@@H](O)C[C@@H]1O [9α-11β-PGF2] |  | cross-reaction with anti-8EPGF2 IgG (anti-8EPGF2 IgG [1]): 4.1%
CCCCC[C@H](O)/C=C/[C@H]1[C@H](O)CC(=O)[C@@H]1C/C=C\CCCC(=O)O [prostaglandin E2] | did not cross-react | 
CCCCC[C@H](O)CC[C@@H]1[C@@H](CCCCCCC(=O)O)[C@@H](O)C[C@H]1O [13,14-dihydro-PGF1α] | did not cross-react | 
CCCCC[C@H](O)/C=C/[C@@H]1[C@H](CCCCCCC(=O)O)[C@@H](O)C[C@H]1O [8-epi-PGF1α, 5,6-dihydro-8-iso-PGF2α] | did not cross-react | 
CCCCC[C@H](O)/C=C/[C@@H]1[C@H](C/C=C\CCCC(=O)O)[C@@H](O)C[C@H]1O [8EPGF2, 8-epi-prostaglandin F2α] |  | recognition by anti-8EPGF2 antibody (in words) (anti-8EPGF2 IgG [1]; polyclonal antibody, ELISA): recognized; applied 8EPGF2 bound to antibody cross-linked to resin (anti-8EPGF2 IgG [2]): higher than 98%; unbound 8EPGF2 (anti-8EPGF2 IgG [2]; 100 μl resin): lower than 2%; vasoconstrictor property (in words) (vasoconstriction): vasoconstrictor property; effect of high serum concentration on renal arteries (in words) (vasoconstriction; hepatorenal syndrome patients): intense vasoconstriction of renal arteries
CCCCC/C=C\C/C=C\C/C=C\C/C=C\CCCC(=O)O [arachidonic acid] | did not cross-react | 
CCCCC[C@H](O)/C=C/[C@@H]1[C@@H](CCCCCCC(=O)O)[C@H](O)C[C@H]1O [PGF1β] | did not cross-react | 
CCCCC[C@@H](/C=C/[C@@H]1[C@@H](C/C=C\CCCC(=O)O)[C@@H]2C[C@H]1OO2)OO [prostaglandin G2] |  | t1/2 [3]: ~ 5 minutes
CCCCC[C@H](O)/C=C/[C@@H]1[C@@H](C/C=C\CCCC(=O)O)[C@@H]2C[C@H]1OO2 [prostaglandin H2] |  | t1/2 [3]: ~ 5 minutes
CCCCC[C@H](O)/C=C/[C@@H]1[C@@H](C/C=C\CCCC(=O)O)[C@@H](O)C[C@H]1O [PGF2α] | did not cross-react | 
CCCCCC(=O)CC[C@@H]1[C@@H](CCCCCCC(=O)O)[C@@H](O)C[C@H]1O [13-14-dihydro-15-keto-PGF1α] | did not cross-react | 
CCCCC[C@H](O)/C=C/[C@@H]1[C@@H](C/C=C\CCCC(=O)O)[C@H](O)C[C@H]1O [9β-11α-PGF2α] | did not cross-react | 
CCCCC[C@H](O)/C=C/[C@@H]1[C@@H](CCCCCCC(=O)O)[C@H](O)C[C@@H]1O [11β-PGF1β] | did not cross-react | 
CCCCC[C@H](O)/C=C/[C@H]1C(=O)C[C@H](O)[C@@H]1C/C=C\CCCC(=O)O [PGD2] | did not cross-react | 
CCCCCC(=O)CC[C@@H]1[C@@H](C/C=C\CCCC(=O)O)[C@@H](O)C[C@H]1O [13-14-dihydro-15-keto-PGF2α] |  | cross-reaction with anti-8EPGF2 IgG (anti-8EPGF2 IgG [1]): 3%
CCCCC[C@H](O)/C=C/[C@@H]1[C@H](CCCCCCC(=O)O)[C@H](O)C[C@H]1O [8-epi-PGF1β] | did not cross-react | 
CCCCC[C@H](O)/C=C/[C@@H]1[C@@H](CC(=O)CCCCC(=O)O)[C@@H](O)C[C@H]1O [6-keto-PGF1α] | did not cross-react | 
